In ChEMBL document CHEMBL5523705, “High affinity and low PARP-trapping benzimidazole derivatives as a potential warhead for PARP1 degraders” (Eur J Med Chem, 2024):

Columns and labels:
[1] = Inhibition of cell proliferation in HUVECs; assay type: toxicity, cell-based; settings: human, HUVEC cells
[2] = target: Poly [ADP-ribose] polymerase 1 (Homo sapiens, UniProt P09874); experiment: Inhibition of PARP1 (unknown origin) in presence of DNA and substrate by chemiluminescent assay
MCF7 = experiment: Inhibition of cell proliferation in human MCF7 cells; assay type: functional, cell-based
MDA-MB-436 = experiment: Inhibition of cell proliferation in human MDA-MB-436 cells assessed as PARP trapping effect; assay type: functional, cell-based

Sequence of Poly [ADP-ribose] polymerase 1 (P09874 whole entry): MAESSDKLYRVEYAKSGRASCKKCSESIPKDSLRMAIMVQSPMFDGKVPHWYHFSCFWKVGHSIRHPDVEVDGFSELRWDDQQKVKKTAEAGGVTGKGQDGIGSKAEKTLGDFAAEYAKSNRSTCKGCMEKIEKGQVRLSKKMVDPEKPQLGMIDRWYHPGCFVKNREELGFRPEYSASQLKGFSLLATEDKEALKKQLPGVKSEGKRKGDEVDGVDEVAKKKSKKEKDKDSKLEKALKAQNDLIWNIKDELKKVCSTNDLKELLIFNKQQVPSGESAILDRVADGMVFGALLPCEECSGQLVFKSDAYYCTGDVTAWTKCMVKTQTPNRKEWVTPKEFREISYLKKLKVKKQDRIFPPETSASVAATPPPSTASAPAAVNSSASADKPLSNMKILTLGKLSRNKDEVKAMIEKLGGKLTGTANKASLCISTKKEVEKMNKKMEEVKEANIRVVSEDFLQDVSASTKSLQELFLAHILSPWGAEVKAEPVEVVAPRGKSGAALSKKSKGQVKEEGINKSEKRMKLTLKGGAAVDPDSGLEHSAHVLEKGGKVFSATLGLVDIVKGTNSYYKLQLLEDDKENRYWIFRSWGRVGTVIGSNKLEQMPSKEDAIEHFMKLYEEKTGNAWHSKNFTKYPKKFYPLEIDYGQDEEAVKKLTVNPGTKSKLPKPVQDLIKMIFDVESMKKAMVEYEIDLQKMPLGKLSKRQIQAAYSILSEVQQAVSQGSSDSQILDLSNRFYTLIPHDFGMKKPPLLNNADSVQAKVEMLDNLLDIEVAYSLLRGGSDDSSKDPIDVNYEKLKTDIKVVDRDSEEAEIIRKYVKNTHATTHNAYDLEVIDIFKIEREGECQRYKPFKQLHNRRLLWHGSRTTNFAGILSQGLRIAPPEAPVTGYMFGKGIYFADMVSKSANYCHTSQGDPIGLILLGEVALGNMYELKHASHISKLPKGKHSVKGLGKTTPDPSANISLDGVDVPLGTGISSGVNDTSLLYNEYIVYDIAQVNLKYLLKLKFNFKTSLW

Row | IC50 [2] | IC50 (MCF7; Homo sapiens, MCF7) | IC50 (MDA-MB-436; Homo sapiens, MDA-MB-436) | SMILES | IC50 [1] | IC50 (MCF7; mcf7) | IC50 (MDA-MB-436; mda-mb-436)
1 | 0.00518 µM | > 100 µM | 9.09 µM | Cc1ccoc1C(=O)N1CCN(C(=O)c2ccc(-c3nc4c(C(N)=O)cccc4[nH]3)cc2F)CC1C (stereo unspecified) | 85.3 µM |  | 
2 | 0.009 µM | > 100 µM | 20.5 µM | NC(=O)c1cccc2[nH]c(-c3ccc(C(=O)NC4CCN(c5ccco5)C4)c(F)c3)nc12 (stereo unspecified) | 67.1 µM |  | 
3 |  | > 100 µM | 16.4 µM | NC(=O)c1cccc2[nH]c(-c3ccc(C(=O)NC4CCN(c5ccc(Br)o5)C4)c(F)c3)nc12 (stereo unspecified) | > 100 µM |  | 
4 | 0.0324 µM | > 100 µM | > 100 µM | NC(=O)c1cccc2[nH]c(-c3ccc(C(=O)N4CCN(C(=O)c5ccco5)CC4)c(F)c3)nc12 | > 100 µM |  | 
5 | 0.00685 µM | > 100 µM | 21.8 µM | CC1CN(C(=O)c2ccc(-c3nc4c(C(N)=O)cccc4[nH]3)cc2F)CCN1C(=O)c1ccc(Cl)o1 (stereo unspecified) | 47.8 µM |  | 
6 | 0.00438 µM | > 100 µM | 7.6 µM | NC(=O)c1cccc2[nH]c(-c3ccc(C(=O)NC4CCN(c5ccc(Cl)o5)C4)c(F)c3)nc12 (stereo unspecified) | > 100 µM |  | 
7 |  | > 100 µM | 14.9 µM | CC1CN(C(=O)c2ccc(-c3nc4c(C(N)=O)cccc4[nH]3)cc2F)CCN1C(=O)c1ccc(Br)o1 (stereo unspecified) | 52.6 µM |  | 
8 | 0.00572 µM | > 100 µM | 17.3 µM | Cc1ccc(C(=O)N2CCN(C(=O)c3ccc(-c4nc5c(C(N)=O)cccc5[nH]4)cc3F)CC2C)o1 (stereo unspecified) | > 100 µM |  | 

The next lines start with the molecule.

Row | SMILES | IC50 [2] | IC50 (MCF7; Homo sapiens, MCF7) | IC50 (MDA-MB-436; Homo sapiens, MDA-MB-436) | IC50 [1] | IC50 (MCF7; mcf7) | IC50 (MDA-MB-436; mda-mb-436)
9 | Cn1cncc1C(=O)N1CCN(C(=O)c2ccc(-c3nc4c(C(N)=O)cccc4[nH]3)cc2)CC1 | 0.0846 µM | > 100 µM | > 100 µM | > 100 µM |  | 
10 | O=C(c1cc(Cc2n[nH]c(=O)c3ccccc23)ccc1F)N1CCN(C(=O)C2CC2)CC1 [OLAPARIB] |  | > 100 µM | 23.9 µM | > 100 µM |  | 
11 | C[C@]1(c2nc3c(C(N)=O)cccc3[nH]2)CCCN1 [VELIPARIB] |  |  |  | > 100 µM | > 100 µM | > 100 µM
12 | NC(=O)c1cccc2[nH]c(-c3ccc(C(=O)N4CCN(C(=O)c5csc(Br)n5)CC4)cc3)nc12 | 0.00462 µM | > 100 µM | > 100 µM | > 100 µM |  | 
13 | Cn1cccc1C(=O)N1CCN(C(=O)c2ccc(-c3nc4c(C(N)=O)cccc4[nH]3)cc2)CC1 | 0.0456 µM | > 100 µM | > 100 µM | > 100 µM |  | 
14 | NC(=O)c1cccc2[nH]c(-c3ccc(C(=O)N4CCN(C(=O)c5ccccn5)CC4)cc3)nc12 | 0.0506 µM | > 100 µM | > 100 µM | > 100 µM |  | 
15 | NC(=O)c1cccc2[nH]c(-c3ccc(C(=O)N4CCN(C(=O)c5ccco5)CC4)cc3)nc12 | 0.0541 µM | > 100 µM | > 100 µM | > 100 µM |  | 
